We go through 13 molecules from publication PMC8066157, “Bovine Viral Diarrhea Virus (BVDV): A Preliminary Study on Antiviral Properties of Some Aromatic and Medicinal Plants” (Pathogens, 2021).

In general, EC50 refers to the concentration at which the effect is half-maximal.

One data set has as its system MDBK cells. In words: Cytotoxicity in mock-infected MDBK cells (MTT). As to conditions: for CC50: read-out: CC50 MDBK, mock-infected MDBK cells, MTT, pure compounds.
The test system of data set [1] is BVDV. In words: microbe, parasite or virus in culture. In kind it is cell-based, bovine viral diarrhea virus (strain NADL). As to conditions: read-out: EC50 BVDV.
Data set [2] is described as follows: Cytotoxicity in mock-infected MDBK cells (MTT). As to conditions: bovine (Bos taurus), mock-infected MDBK cells (Madin-Darby bovine kidney).
The test system of a further data set is WNV. In kind it is cell-based, west Nile virus.
The test system of the next data set is DENV-2. In kind it is cell-based, dengue virus (DENV-2).
Another data set deals with YFV. In kind it is cell-based, yellow fever virus (strain 17-D).
Data set [3] is described as follows: in vitro. The conditions noted are these: monkey (Cercopithecus aethiops).
The next data set concerns RSV. Put plainly: microbe, parasite or virus in culture. The conditions noted are these: human respiratory syncytial virus, Vero 76, read-out: EC50 RSV. In kind it is cell-based, human respiratory syncytial virus (strain A2).
The nature of data set [4]: in vitro. The conditions noted are these: human.
For the next data set, the system named is VV. In kind it is cell-based, vaccinia virus.
A further data set deals with CV-B5. In words: organism not typed. In kind it is cell-based, coxsackie type B5. As to conditions: Vero 76, read-out: EC50 CV-B5.
In data set [5] the test system is BVDV. Put plainly: Virucidal assay against BVDV virions. Also on record: species or system bovine viral diarrhea virus. As to conditions: 100 µM, 2 h, 4 and 37 °C.
The test system of data set [6] is BVDV. In kind it is cell-based, bovine viral diarrhea virus. The conditions noted are these: 100, 20, 4, 0.8 µM.
Where [7] appears, read: Bovine viral diarrhea virus isolates and strains, MDBK.

“Also recorded” adds a separate entry of the source. Where two headings read alike, the source gives them in different places.

2+β Thujone: the CC50 in the data set on MDBK cells was over 100 µM. In addition, in the data set with BVDV [1], the concentration for a half-maximal effect (EC50) is over 100 µM.

As to `CC12CCC(CC1)C(C)(C)O2` [1,8-Cineole], in data set [2], the CC50 is over 100 µM. Also, the concentration giving a half-maximal response (EC50) in the data set with BVDV [1] (setting [7]) was over 100 µM.

Regarding `C[C@@]1(O)[C@H](O)[C@@H](CO)O[C@H]1n1cnc2c(=O)[nH]c(N)nc21` [2′-C-Me-Guanosine], the CC50 was over 100 µM in the data set with MDBK cells and 60 µM in the data set on BHK cells. Also, the EC50 is 400 nM with WNV, 300 nM in the data set with DENV-2, 1200 nM in the data set with YFV and 1.6 ± 0.2 µM in the data set on BVDV [1].

On to `O=c1cnn([C@@H]2O[C@H](CO)[C@@H](O)[C@H]2O)c(=O)[nH]1` [6-Aza-Uridine], for which the CC50 in “in vitro [3]” was 4 µM. Further, the concentration giving a half-maximal response (EC50) with RSV worked out at 1000 nM.

`C=C1C2CCC(C2)C1(C)C` (centres unmarked) [Camphene] came in with a CC50 in [2] of over 100 µM. Further, the concentration giving a half-maximal response (EC50) with BVDV [1] (setting [7]) was over 100 µM.

In data set [2], `CC12CCC(CC1=O)C2(C)C` (centres unmarked) [Camphor] displayed a CC50 of over 100 µM. Further, the EC50 in the data set with BVDV [1] (setting [7]) was over 100 µM.

Molecule `O=C1Nc2ccc(Cl)cc2[C@@](C#CC2CC2)(C(F)(F)F)O1` [Efavirenz] returned a CC50 in the data set “in vitro [4]” of 40 µM.

For `C=C(C)[C@H]1CC=C(C)CC1` [Limonene], in the data set on MDBK cells, the CC50 is over 100 µM. Also, in the data set on BVDV [1], the EC50 is over 100 µM.

Molecule `COc1c(C)c2c(c(O)c1C/C=C(\C)CCC(=O)O)C(=O)OC2` [Mycophen.Ac.] gave a CC50 with Vero-76 cells of 20 µM. Also, a half-maximal response in the data set on VV (EC50) required 1500 nM.

Regarding `Cc1cc(CCCOc2c(C)cc(-c3noc(C(F)(F)F)n3)cc2C)on1` [Pleconaril], in “in vitro [3]”, the CC50 was over 100 µM. Further, the concentration for a half-maximal effect (EC50) in the data set with CV-B5 was determined as 5 nM.

In turn, `C=C1CC/C=C(\C)CC[C@@H]2[C@@H]1CC2(C)C` [Trans-Caryophyllene] had a CC50 in [2] of over 100 µM. Further, the EC50 in the data set on BVDV [1] (setting [7]) was 90 ± 1 µM.

For `C/C1=C\CC/C(C)=C/CC(C)(C)/C=C/C1` [α-Humulene], the “Cytotoxicity (in words)” value in the data set on MDBK cells (MDBK cells) is given as “non-cytotoxic”. Moreover, in the data set on MDBK cells, the CC50 is over 100 µM. Also, the “Virucidal activity (BVDV titer of treated vs untreated virus)” value in the data set on BVDV [5] is on record as “No significant differences”. The EC50 in the data set with BVDV [1] stood at 36 ± 0.5 µM. The “Reduction of BVDV titer (yield reduction)” value in the data set with BVDV [6] was “dose-dependent reduction of virus titer; also recorded: reduce the viral BVDV titer in vitro assays in a dose-dependent manner”.

Regarding `C=C1CCC2CC1C2(C)C` (stereo not drawn) [β-Pinene], in data set [2], the CC50 is over 100 µM. Further, in the data set with BVDV [1] (setting [7]), the concentration giving a half-maximal response (EC50) was over 100 µM.
